Experimental data published in PubChem BioAssay (NCI).
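Five compound concentrations were applied to cells in 96-well plates for 48 hours; endpoints were derived by simple linear interpolation of the resulting dose-response curve. The concentration for 50% growth inhibition is given as GI50. TGI: total growth inhibition.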

Tests used:
Experiment in all cases: NCI tumour cell line growth inhibition, 48 h
SK-MEL-2 melanoma = system: SK-MEL-2 melanoma
LOX IMVI melanoma = system: LOX IMVI melanoma
OVCAR-3 ovarian = system: OVCAR-3 ovarian
NCI-H23 lung = system: NCI-H23 lung
CCRF-CEM leukemia = system: CCRF-CEM leukemia
UO-31 renal = system: UO-31 renal
HOP-92 NSCLC = system: HOP-92 NSCLC
UACC-257 melanoma = system: UACC-257 melanoma
SW-620 colon = system: SW-620 colon
RPMI-8226 leukemia = system: RPMI-8226 leukemia

SMILES | TGI (SK-MEL-2 melanoma) | TGI (LOX IMVI melanoma) | TGI (OVCAR-3 ovarian) | TGI (NCI-H23 lung) | TGI (CCRF-CEM leukemia) | TGI (UO-31 renal) | TGI (HOP-92 NSCLC) | TGI (UACC-257 melanoma) | TGI (SW-620 colon) | TGI (RPMI-8226 leukemia) | GI50 (SK-MEL-2 melanoma) | GI50 (LOX IMVI melanoma) | GI50 (OVCAR-3 ovarian) | GI50 (NCI-H23 lung) | GI50 (CCRF-CEM leukemia) | GI50 (UO-31 renal) | GI50 (HOP-92 NSCLC) | GI50 (UACC-257 melanoma) | GI50 (SW-620 colon)
COCCOCCOCCOc1ccc(C(C#N)N(CCc2ccccc2)C(=O)c2cc(C(=O)N(CCc3ccccc3)C(C#N)c3ccc(OCCOCCOCCOC)cc3)cc(C(=O)N(CCc3ccccc3)C(C#N)c3ccc(OCCOCCOCCOC)cc3)c2)cc1 (stereo not drawn) | > 100 µM | > 100 µM | > 100 µM | > 100 µM | > 100 µM | > 100 µM | > 100 µM | > 100 µM | > 100 µM |  |  |  |  |  |  |  |  |  | 
Cn1c(=O)oc2cc(Br)ccc21 | > 100 µM | > 100 µM | > 100 µM | > 100 µM | > 100 µM | > 100 µM |  | > 100 µM | > 100 µM | > 100 µM |  |  |  |  |  |  |  |  | 
CC(=O)Oc1c2oc3cc(O)c(O)cc3c2c(OC(C)=O)c2oc3cc(O)c(O)cc3c12 | 42.1 µM | > 100 µM |  | 7.38 µM | > 100 µM | 42 µM |  | 38.8 µM | > 100 µM |  |  |  |  |  |  |  |  |  | 
CC(=O)Oc1c(C)c2c(c3ccccc13)OC(C)(C)C2 | 34 µM |  | 52 µM | 28 µM | > 100 µM | 33.1 µM | 31.9 µM | 24.6 µM | 35.8 µM | 39.1 µM |  |  |  |  |  |  |  |  | 
COc1ccc(Nc2nc3ccccc3nc2C(=O)O)cc1OC |  | > 100 µM | > 100 µM | > 100 µM | > 100 µM | 97.8 µM | > 100 µM | > 100 µM | > 100 µM | > 100 µM |  |  |  |  |  |  |  |  | 
N#Cc1c(-c2ccccc2)c(C#N)c(=O)n(C2OC(CO)C(O)C(O)C2O)c1S (stereo not drawn) | > 100 µM | > 100 µM | > 100 µM | > 100 µM | > 100 µM | > 100 µM |  | > 100 µM | > 100 µM | > 100 µM |  |  |  |  |  |  |  |  | 
O=C1NC(S(=O)(=O)O)=NNC12c1ccccc1-c1ccccc12 |  | > 10 µM |  | > 10 µM | > 10 µM | > 10 µM | > 10 µM | > 10 µM | > 10 µM | > 10 µM |  |  |  |  |  |  |  |  | 
Cc1cc(C)n(C(=O)CSc2nnc(SCC(=O)n3nc(C)cc3C)s2)n1 |  | > 100 µM | > 100 µM | > 100 µM | > 100 µM | > 100 µM | > 100 µM | > 100 µM | > 100 µM | > 100 µM |  |  |  |  |  |  |  |  | 
C[N+](C)([O-])Cc1cc(-c2ccccc2)ccc1O | > 100 µM | > 100 µM | > 100 µM | > 100 µM |  | > 100 µM | > 100 µM | > 100 µM | > 100 µM |  |  |  |  |  |  |  |  |  | 
CN(C)C(=O)C1CCN(Cc2c[nH]c3ccccc23)CC1 | > 100 µM | > 100 µM | > 100 µM | > 100 µM |  | > 100 µM | > 100 µM | > 100 µM | 30.7 µM | > 100 µM |  |  |  |  |  |  |  |  | 
O=C(N/N=C(/COc1cccc(Cl)c1)N=Cc1cccnc1)c1ccncc1 | > 100 µM | > 100 µM | > 100 µM | > 100 µM | > 100 µM |  | 89.7 µM | > 100 µM | > 100 µM | > 100 µM |  |  |  |  |  |  |  |  | 
COc1ccc(-c2nc(-c3cnccn3)n(COCCO)n2)cc1 |  | > 100 µM | > 100 µM | > 100 µM | > 100 µM | > 100 µM | > 100 µM | > 100 µM | > 100 µM | > 100 µM |  |  |  |  |  |  |  |  | 
CCCCCCCCCc1c(O)c(O)c(CCCCCCCCC)c(CCCCCCCCC)c1CCCCCCCCC | > 100 µM | > 100 µM | > 100 µM | > 100 µM | 88.6 µM |  |  | > 100 µM | > 100 µM | > 100 µM |  |  |  |  |  |  |  |  | 
Nc1c(N2CCCCC2)c(=O)nc2[nH]/c(=C\c3ccccc3)c(=O)n12 |  | > 100 µM |  | > 100 µM | > 100 µM | > 100 µM | > 100 µM | > 100 µM | > 100 µM | > 100 µM |  |  |  |  |  |  |  |  | 
O=[N+]([O-])c1sc2ccc(Cl)cc2c1Nc1ccc(Cl)cc1 | > 100 µM | > 100 µM | > 100 µM | > 100 µM | > 100 µM | > 100 µM |  |  | > 100 µM | > 100 µM |  |  |  |  |  |  |  |  | 
CC(O[Si](c1ccccc1)(c1ccccc1)C(C)(C)C)[C@H](NC(=O)OC(C)(C)C)C(=O)O (stereo partly drawn) |  |  |  | > 100 µM | > 100 µM | > 100 µM | 78.1 µM | > 100 µM | > 100 µM | > 100 µM |  |  |  |  |  |  |  |  | 
O=[N+]([O-])c1cccc2nc3ccccc3c(NCCCN3CCCCC3)c12 | 0.0296 µM | 0.0562 µM | 0.026 µM | 0.0231 µM |  |  | 0.0434 µM | 0.0446 µM | 5.89 µM | 0.0611 µM |  |  |  |  |  |  |  |  | 
CC1=CC(C)(C)Nc2ccc(CSc3ccccc3)cc21 | 52.2 µM | 82.3 µM | 39.5 µM | > 100 µM |  | 50.8 µM | > 100 µM | 59.3 µM | > 100 µM | 31.2 µM |  |  |  |  |  |  |  |  | 
CC(=O)N/C(=C\c1ccc(/C=C(\NC(C)=O)C2=NC3C(=O)c4ccccc4C(=O)C3N2)cc1)C1=NC2C(=O)c3ccccc3C(=O)C2N1 (stereo not drawn) |  | > 100 µM | > 100 µM | > 100 µM | 86.4 µM | 74.1 µM | > 100 µM | > 100 µM |  | > 100 µM |  |  |  |  |  |  |  |  | 
C=C1CC(COc2ccc3c(C)cc(=O)oc3c2)(c2ccccc2)OC1=O (stereo not drawn) | 3.65 µM | 3.1 µM | 5.59 µM | 5.53 µM |  | 14.5 µM | 1.56 µM | 3.9 µM | 2.31 µM | 1.62 µM |  |  |  |  |  |  |  |  | 
COc1ccc(CNC(=O)[C@H](Cc2ccc(O)cn2)NC(C)=O)cc1 | > 100 µM | > 100 µM | > 100 µM | > 100 µM | > 100 µM | > 100 µM |  | > 100 µM | > 100 µM | > 100 µM |  |  |  |  |  |  |  |  | 
O=C(O)Cn1c2c(c3c(O)cccc31)C(=O)c1ccccc1-2 | > 100 µM | > 100 µM | > 100 µM | > 100 µM | > 100 µM | > 100 µM | > 100 µM | > 100 µM | > 100 µM |  | > 100 µM | > 100 µM | > 100 µM | > 100 µM | > 100 µM | > 100 µM | > 100 µM | > 100 µM | > 100 µM
CC(=O)N=C1N(/C=C2\C(=O)Oc3ccccc3C2=O)C(=O)/C(=C/c2ccccc2Cl)N1C | > 100 µM | > 100 µM |  | > 100 µM | > 100 µM |  |  | > 100 µM | > 100 µM | > 100 µM |  |  |  |  |  |  |  |  | 
